From US9814787B2, “Luciferin amides” (University of Massachusetts, priority 2013, dated 2017)

What was measured:
[1] = biological target: T1, FAAH (Homo sapiens, UniProt O00519); assay: In vitro FAAH assay: luciferin amide treated with recombinant FAAH, then R218K luciferase, bioluminescence; assay type: biochemical
T1 construct: purchased Cayman Chemical
T1 sequence (O00519 1-579): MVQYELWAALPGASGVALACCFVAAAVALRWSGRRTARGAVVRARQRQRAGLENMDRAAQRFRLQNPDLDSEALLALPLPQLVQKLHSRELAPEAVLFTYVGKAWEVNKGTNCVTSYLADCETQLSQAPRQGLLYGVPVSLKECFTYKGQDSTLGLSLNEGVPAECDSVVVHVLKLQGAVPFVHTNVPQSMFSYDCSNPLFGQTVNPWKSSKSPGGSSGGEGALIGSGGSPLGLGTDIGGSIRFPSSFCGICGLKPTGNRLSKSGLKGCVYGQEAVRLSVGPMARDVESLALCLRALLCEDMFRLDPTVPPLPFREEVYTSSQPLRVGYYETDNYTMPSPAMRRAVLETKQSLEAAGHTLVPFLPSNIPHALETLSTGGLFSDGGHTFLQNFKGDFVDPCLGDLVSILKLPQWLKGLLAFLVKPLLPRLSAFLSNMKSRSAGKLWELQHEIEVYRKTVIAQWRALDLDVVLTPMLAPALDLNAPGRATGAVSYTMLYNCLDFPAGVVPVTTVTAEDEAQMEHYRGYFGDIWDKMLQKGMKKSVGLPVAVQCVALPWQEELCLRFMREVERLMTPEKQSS
Procedure: Recombinant FAAH, FAAH assay buffer, and FAAH inhibitors URB-597, PF-750, and PF-3845 were purchased from Cayman Chemical.
Bioluminescence assays were performed in either a Turner Veritas luminometer or a Xenogen IVIS-100 imaging system. For Veritas experiments, white 96-well plates were used (Costar 3912). For IVIS experiments, black 96-well plates were used (Costar 3915).
Luciferin amides (50 μM) were treated with FAAH and FAAH buffer (Cayman Chemical) in the presence or absence of 50 μM FAAH inhibitor URB-597 or 50 μM luciferase inhibitor 2-(4′-methoxyphenyl)benzothiazole. After 10 minutes at room temperature, R218K mutant firefly luciferase was added at a concentration of 3 μg/mL and bioluminescence was detected on a Turner Veritas luminometer.
Four luciferin amides (50 μM), i.e., Compounds 1, 9, 10, and 25, were treated with a buffer alone, a buffer containing FAAH, a buffer containing FAAH+50 μM URB-597 (i.e., a FAAH inhibitor), or a buffer containing FAAH+50 μM luciferase inhibitor 2-(4′-methoxyphenyl)benzothiazole. After 10 minutes at room temperature, R218K luciferase was added at a concentration of 3 μg/mL and bioluminescence was detected on a Turner Veritas.
Three luciferin amides (50 μM), i.e., Compounds 2, 9, and 25, were treated with a buffer alone, a buffer containing FAAH, a buffer containing FAAH 1:10 (i.e., a ten-fold dilution of FAAH), a buffer containing pig liver esterase (PLE), or a buffer containing PLE 1:10 (i.e., a ten-fold dilution of PLE). After one hour at room temperature, R218K luciferase was added at a concentration of 3 μg/mL and bioluminescence was detected on a Turner Veritas.

[2] = tested on: FVB mice expressing luciferase in brain tissue; assay: In vivo bioluminescence imaging in brains of FVB mice injected with AAV9-luc+ in the striatum; conditions: for light emission in brains of live mice (qualitative): mouse, in vivo
Procedure: (§1) FVB mice were injected with AAV9-luc+ in the brain striatum. Bioluminescence assays were performed approximately nine months after AAV injection. Each luciferin amide was diluted into PBS to the indicated concentration from a 50 mM DMSO stock solution and filtered (0.22 μm) prior to intraperitoneally injection (0.1 mL per mouse). Mice were anesthetized with isoflurane (2% in 1 L/min oxygen) and images acquired on a Xenogen IVIS 100 imaging system and analyzed with Living Image software.
Certain luciferin amides described herein were tested to determine whether they would image well in live mice. For these studies, FVB mice were injected with adeno-associated virus 9 (AAV9)-luciferase constructs into the brain striatum.
Bioluminescence imaging (BLI) in the brain is more challenging than imaging in the rest of the organism, in part because a luciferase substrate (i.e., a luciferin) must cross the blood-brain barrier. Therefore, the ability of a synthetic luciferin (i.e., Compound 9's corresponding luciferin (CycLuc1)) to allow bioluminescence imaging in these mice, as compared to the native firefly luciferase substrate (i.e., D-luciferin) was first tested. Specifically, each substrate was injected intraperitoneally (IP) in PBS at a volume of 0.1 mL, D-luciferin being at a concentration of 100 mM and CycLuc1 being at a concentration of 5 mM. […] CycLuc1 was then injected at a 320-fold lower dose (0.06 mL of 0.5 mM) than D-luciferin.
Specifically, Compound 9 (i.e., CycLuc1 amide) was injected at 0.5 mM in 0.5% DMSO/PBS (0.06 mL).
In this figure, mice in the top row were treated with luciferin amides in the amounts indicated in the figure, and the mice in the bottom row were the same mice that were imaged one day later using a standard dose of D-luciferin.

[3] = biological target: T2, FAAH (Mus musculus, UniProt O08914); assay: In vivo FAAH inhibition assay with PF-3845; set-up: species or system mice; conditions: for total photon flux, average: 0.1 mM (0.1 mL) IP
T2 construct: metabolized into CycLuc1 by endogenous FAAH activity; from tissue; host or cells: brain (striatum) of live FVB mice expressing AAV9-delivered luciferase
T2 sequence (O08914 1-579): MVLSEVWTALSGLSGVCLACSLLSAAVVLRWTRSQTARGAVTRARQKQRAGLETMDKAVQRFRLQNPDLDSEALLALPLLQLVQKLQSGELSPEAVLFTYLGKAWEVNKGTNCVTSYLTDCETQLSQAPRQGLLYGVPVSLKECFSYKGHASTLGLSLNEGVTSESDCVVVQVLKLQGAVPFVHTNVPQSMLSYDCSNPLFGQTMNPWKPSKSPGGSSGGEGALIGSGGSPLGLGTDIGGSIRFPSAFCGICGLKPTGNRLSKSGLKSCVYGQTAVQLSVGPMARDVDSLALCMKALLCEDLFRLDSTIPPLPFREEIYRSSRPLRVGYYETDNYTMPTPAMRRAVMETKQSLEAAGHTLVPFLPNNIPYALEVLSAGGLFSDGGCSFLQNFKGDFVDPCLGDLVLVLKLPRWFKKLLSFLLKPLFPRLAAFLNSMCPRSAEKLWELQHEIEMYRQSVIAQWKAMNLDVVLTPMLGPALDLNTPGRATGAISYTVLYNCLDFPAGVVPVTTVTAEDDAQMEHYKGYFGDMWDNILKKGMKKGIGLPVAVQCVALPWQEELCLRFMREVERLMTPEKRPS
Procedure: as §1
Mice were injected intraperitoneally with 1 mg/mL of a specific FAAH inhibitor PF-3845 dissolved in 18:1:1 PBS:ethanol:emulphor (0.1 mL), or with an equal volume of 18:1:1 PBS:ethanol:emulphor control vehicle. Thirty minutes after injection, the mice were imaged as described above.
FAAH is highly expressed in most tissues, particularly in the brain. To determine whether the luciferin amides are cleaved exclusively by FAAH in the brain tissue, eight FVB mice expressing AAV9-luciferase in the striatum were divided into two groups: (1) four mice were injected IP with 1 mg/mL of a specific FAAH inhibitor PF-3845 dissolved in 18:1:1 PBS:ethanol:emulphor (0.1 mL), and (2) four mice were treated with an equal volume of 18:1:1 PBS:ethanol:emulphor control vehicle without PF-3845. After 30 minutes, one mouse from each group was IP injected with 5 mM CycLuc1 (i.e., Compound 9's corresponding luciferin) in PBS (0.1 mL), and three were injected with 0.1 mM Compound 5 in 0.2% DMSO/PBS (0.1 mL). The mice were imaged 10 minutes after substrate injection. Mice in the right panel were group (1) (i.e., treated with a FAAH inhibitor) and mice in the left panel were from group (2) (i.e., without being treated with a FAAH inhibitor).

[4] = tested on: live CHO cells expressing R218K luciferase; assay: Intact cell FAAH assay, light emission from live CHO cells expressing R218K luciferase; assay type: cell-based, Chinese hamster; conditions: 50 μM FAAH inhibitor
Procedure: Chinese hamster ovary-K1 (CHO-K1) cells were grown in a CO2 incubator at 37° C. with 5% CO2 and were cultured in F-12K Nutrient Mixture (GIBCO) supplemented with 10% fetal bovine serum and 100 U/mL penicillin/streptomycin.
Wild-type and R218K mutant luciferases were cloned into the BamHI-NotI site of pCDNA 3.1 and transiently transfected into CHO-K1 cells with Lipofectamine 2000 in 96-well tissue culture-treated plates for intact cell assays, or 6-well plates for lysed cell assays. For intact cells, 0.075 μg plasmid/well was transfected; for lysed cells, 2.25 μg plasmid/well was transfected.
[…] The cells were incubated for one hour in the CO2 incubator at 37° C. Cells were then washed with Hank's balanced salt solution (HBSS) and overlaid with 60 μL a luciferin amide substrate in HBSS. Imaging assays were performed 3 minutes after substrate addition, with final substrate concentrations ranging from 0.122 to 250 μM.
Seven luciferin amides, i.e., Compounds 1-4, 9, 10, and 25, were tested in live CHO cells expressing R218K luciferase at various concentrations (i.e., 0.12 μM, 0.25 μM, 0.5 μM, 1 μM, 2 μM, 4 μM, 8 μM, 16 μM, 31 μM, 62 μM, 125 μM, and 250 μM).
Compound 25 and Compound 10, as well as their corresponding luciferins (i.e., D-Luciferin and CycLuc2, respectively), were tested in live CHO cells expressing wild-type (WT) luciferase or R218K (RK) luciferase at various concentrations (i.e., 0.125 μM, 0.25 μM, 0.5 μM, 1 μM, 2 μM, 4 μM, 8 μM, 16 μM, 31 μM, 62 μM, 125 μM, and 250 μM).

For CNc1ccc2nc(C3=N[C@@H](C(N)=O)CS3)sc2c1 [Compound 1, (S)-4,5-dihydro-2-(6-(methylamino)benzo[d]-thiazol-2-yl)thiazole-4-carboxamide], the “increase in bioluminescence signal on addition of FAAH versus buffer” value ([1]; 50 μM luciferin amide, 10 minutes at room temperature, R218K luciferase 3 μg/mL) was 167 fold and the “light emission in brains of live mice (qualitative)” value (from here on “light emission in brains”) [2] was “relatively strong light emission”.
With CC(C)CNc1ccc2nc(C3=N[C@@H](C(N)=O)CS3)sc2c1 [Compound 3, (S)-4,5-dihydro-2-(6-(isobutylamino)benzo[d]-thiazol-2-yl)thiazole-4-carboxamide] the “light emission in brains” value [2] was “relatively strong light emission”.
NC(=O)[C@H]1CSC(c2nc3ccc(NCCCO)cc3s2)=N1 [Compound 4, (S)-2-(6-(3-hydroxypropylamino)benzo[d]-thiazol-2-yl)-4,5-dihydrothiazole-4-carboxamide] was tested, and the “light emission in brains” value [2] was “relatively weak light emission”.
With CC(C)Nc1ccc2nc(C3=N[C@@H](C(N)=O)CS3)sc2c1 [Compound 5, (S)-4,5-dihydro-2-(6-(isopropylamino)-benzo[d]thiazol-2-yl)thiazole-4-carboxamide] the “Photon flux after treatment with luciferin analogs” value ([2]; 4 μM) was 2.97E+05 p/s, the “signal as share of the D-luciferin signal” value ([2]; 4 μM, 25,000-fold lower dose) was ~30% and the “Photon flux after treatment with luciferin analogs” value ([2]; 20 μM) was 1.95E+06 p/s. For the same molecule, the “Photon flux after treatment with luciferin analogs” value ([2]; 100 μM) was 7.84E+06 p/s, the “Photon flux after treatment with luciferin analogs” value ([2]; 500 μM) was 1.19E+07 p/s and the “photon flux relative to standard 100 mM D-luciferin” value ([2]; IP, 20 μM, 5000-fold lower dose) was “higher photon flux than the standard 100 mM D-luciferin”. The “bioluminescence signal higher than standard D-luciferin imaging conditions” value ([2]; doses 200-fold and 1000-fold lower than standard D-luciferin dose) was 5 fold, the “total photon flux, average” value ([3]; group (1) treated with PF-3845) was 4.4×10^4 p/s and the “total photon flux, average” value ([3]; group (2) vehicle without PF-3845) was 1.3×10^7 p/s. For the same molecule, the “change of light output by FAAH inhibitor PF-3845 (group 1 vs group 2)” value ([3]; PF-3845 1 mg/mL (0.1 mL) IP 30 minutes before substrate) was “reduced by nearly three orders of magnitude”.
For CCNc1ccc2nc(C3=N[C@@H](C(N)=O)CS3)sc2c1 [Compound 6, (S)-2-(6-(ethylamino)benzo[d]thiazol-2-yl)-4,5-dihydrothiazole-4-carboxamide], the “light emission in brains” value [2] was “relatively strong light emission”.
CCNc1ccc2nc(C3=N[C@@H](C(=O)NC)CS3)sc2c1 [Compound 7, (S)-2-(6-(ethylamino)benzo[d]thiazol-2-yl)-4,5-dihydro-N-methylthiazole-4-carboxamide] was tested, and the “light emission in brains” value [2] was “relatively strong light emission”.
NC(=O)[C@H]1CSC(c2nc3cc4c(cc3s2)NCCC4)=N1 [Compound 14, (S)-2-(5,6,7,8-tetrahydrothiazolo[4,5-g]quinolin-2-yl)-4,5-dihydrothiazole-4-carboxamide] was tested, and the “Photon flux after treatment with luciferin analogs” value ([2]; 100 μM) was 1.43E+07 p/s and the “improved signal over 100 mM D-luciferin” value ([2]; 0.1 mM) was “more than 10 fold”.
In the case of CN1CCc2cc3nc(C4=N[C@@H](C(=O)O)CS4)sc3cc21 [CycLuc2, reference compound], the “effect of FAAH inhibitors URB-597, PF-750 and PF-3845 on light output” value [4] is reported as “no significant effect”.
For O=C(O)[C@H]1CSC(c2nc3ccc(O)cc3s2)=N1 [D-luciferin, reference compound], the “Photon flux after treatment with luciferin analogs” value ([2]; 100 mM) was 1.21E+06 p/s.
With NC(=O)c1cccc(-c2cccc(OC(=O)NC3CCCCC3)c2)c1 [URB-597, reference compound] the “inhibition of the FAAH-dependent bioluminescence signals of Compounds 1, 9, 10, 25 by FAAH inhibitor” value ([1]; 50 μM URB-597, 50 μM luciferin amide) was “more than 100 fold”.
For “Me2N-luciferin methyl ester [reference compound]”, the “light emission in brains” value [2] was “relatively weak light emission”.
